Entries after “also recorded” stand apart in the source; their conditions may differ. Read-outs that look alike come from different tables or passages of the source.
Key:
[1] = cited from earlier work
[2] = test system: d-amphetamine-induced hyperactivity; experiment: d-amphetamine-induced hyperlocomotion, rodent model of mania; format: in vivo; conditions: mice, 20 min before d-amphetamine 3.5 mg/kg
[3] = test system: immediate early gene c-fos expression in the brain; conditions: mouse
Method: (A) Mice were treated with a drug or vehicle solution for the control group using either intraperitoneal (i.p.), per oral (p.o.). subcutaneous (s.c.), intramuscular (i.m.) or intravenous (i.v.) delivery.
(C) After the aforementioned c-fos induction period, the mice were sacrificed and the c-fos induction was visualized using whole-brain immunostaining. The brains were then chemically cleared and imaged by light-sheet fluorescent microscopy (LSFM).
(D) The whole-brain scans are depicted as serial section datasets with an XYZ resolution of about 4×4×5 microns.
(E) The c-fos-positive cells were detected in these datasets using custom algorithms.
(F) The whole-brain distribution of the detected c-fos-positive cells was then represented in 3D as a spatial map of centroid points in the 3D space of the mouse brain.
(G) This 3D map distribution was registered to a reference mouse brain and spatially voxelized using overlapping 150-micron sphere voxels.
This method called “pharmacomapping” (implemented as a fee for service by CRO Certerra, Inc. Farmingdale, N.Y.) is based on a proprietary and largely automated drug-screening platform that comprises whole-brain detection of drug-evoked neuronal activation represented by drug-evoked expression of the immediate early gene (IEG) c-fos. Until now, the detection of c-fos as a marker of brain activation required time-consuming, laborious methods such as in situ hybridization or immunohistochemistry in brain tissue sections, followed by mounting the sections on microscopic slides, manual imaging, and largely visual quantification. Nevertheless, over the last two decades a number of studies used these methods to test drug-evoked activity in the mouse or rat brain for various psychoactive medications, including antipsychotics, antidepressants, stimulants and anxiolytics (Engber et al., 1998; Salminen et al., 1996; SEMBA et al., 1996; Slattery et al., 2005; Sumner et al., 2004).
In contrast to the older methods, the pharmacomapping method uses largely automated and standardized whole-brain immunostaining and brain clearing together with advanced microscopy (light-sheet fluorescence microscopy, LSFM), computational (e.g. machine learning) and statistical methods (FIG. 1; see, for example, the published U.S. Patent Application No. 2014/0297199, the content of which is incorporated by reference herein in its entirety). The first generation of this platform used serial two-photon tomography (STPT) as a method for imaging and c-fos-GFP mice expressing green fluorescent protein (GFP) under the control of the c-fos promoter (see, e.g., published U.S. Patent Application No. 2014/0297199, the content of which is incorporated by reference herein in its entirety).
The second generation of the pharmacomapping platform currently employed by Certerra uses whole-brain immunostaining and clearing procedure named iDISCO+ and whole-brain imaging by light-sheet fluorescence microscopy to detect c-fos-positive neurons in wild type mice (Renier et al., 2016).

[4] = cited from earlier work; remark: listed apart in the source
[5] = female mother rats; cited from earlier work

Compound | adverse side-effects in clinical trials ([1]; human doses equivalent to the mouse 6 mg/kg dose) | effects in sleep onset and sleep maintenance ([1]; insomnia, three-month efficacy study) | moderation of d-amphetamine-induced locomotion (ambulatory counts) ([2]; gaboxadol 3 mg/kg, Anova p=0.007, Fisher's PLSD p=0.6) | brain activation (c-fos induction) ([3]; gaboxadol 3 mg/kg alone (HED about 15 mg)) | brain activation (c-fos induction) ([3]; gaboxadol 6 mg/kg alone (HED about 30 mg)) | brain activation (c-fos induction) ([3]; gaboxadol 20 mg/kg (HED about 100 mg)) | people who stopped taking lithium because of adverse events ([4]; BD patients, epidemiological study (Öhlund et al., 2018)) [%] | patients showing good long-term efficacy ([4]; BD patients, long-term maintenance (Scott et al., 2017)) | lithium concentration in drinking water with anti-suicide effect ([4]; drinking water) | serum lithium concentration associated with mild toxicity ([4]; human) [mmol/L] | serum lithium concentration that can be life-threatening ([4]; human) | serum lithium concentration for maintenance treatment ([4]; maintenance of bipolar disorder) [mmol/L] | state of alertness compared to control rats fed placebo [5] | moderation of d-amphetamine-induced locomotion (ambulatory counts) ([2]; lithium 14.1 mg/kg) | brain activation (c-fos induction) ([3]; lithium 85 mg/kg alone (HED about 425 mg)) | brain activation (c-fos induction) ([3]; lithium 120 mg/kg (HED about 600 mg)) | brain activation (c-fos induction) ([3]; lithium 150 mg/kg alone (HED about 750 mg)) | brain activation (c-fos induction) ([3]; lithium 200 mg/kg alone (HED about 1000 mg)) | brain activation (c-fos induction) ([3]; lithium 300 mg/kg (HED about 1500 mg)) | brain activation (c-fos induction) ([3]; lithium 400 mg/kg as printed)
Oc1noc2c1CCNC2 [gaboxadol, 4,5,6,7-tetrahydroisoxazolo (5,4-c) pyridin-3-ol] | no adverse side-effects | failed to show significant effects | only modestly | did not elicit any detectable c-fos signaling activity; also recorded: neither gaboxadol at 3 mg/kg nor lithium at 85 mg/kg alone evoked any brain activation; also recorded: nor gaboxadol at 3 mg/kg (middle row; human equivalent dose about 15 mg) induced any brain activation on their own | moderate brain activation | broad cortical activation |  |  |  |  |  |  |  |  |  |  |  |  |  | 
O=C([O-])[O-].[Li+].[Li+] [lithium, lithium carbonate] |  |  |  |  |  |  | 62 | approximately 30% | less than 150 μg/L | 1.2 to 2.5 | greater than 3.5 mmol/L | 0.6 to 1.0 | low | had no behavioral effect; also recorded: not moderated | did not elicit any detectable c-fos signaling activity; also recorded: neither gaboxadol at 3 mg/kg nor lithium at 85 mg/kg alone evoked any brain activation; also recorded: neither lithium at 85 mg/kg (top row; human equivalent dose about 425 mg), nor gaboxadol at 3 mg/kg (middle row; human equivalent dose about 15 mg) induced any brain activation on their own | modest to moderate activation of a few structures | modest to moderate activation of a few structures; also recorded: moderate brain activation | considerably broader activation; also recorded: moderate brain activation | prominently activated; also recorded: closely matched that of gaboxadol at 20 mg/kg; also recorded: broad activation pattern | considerably broader activation
[6Li] [lithium-6] |  |  |  |  |  |  |  |  |  |  |  |  | very high |  |  |  |  |  |  | 

Source: US20220008388A1 (Certego Therapeutics Inc., priority 2018, published 2022)
